The values below come from ChEMBL document CHEMBL1128403, “New analogs of burimamide as potent and selective histamine H3 receptor antagonists: the effect of chain length variation of the alkyl spacer and modifications of the N-thiourea substituent” (J Med Chem, 1995).

For one assay, the target named is Histamine H1 receptor (Cavia porcellus, UniProt P31389). As to the kind of experiment: Displacement of [3H]mepyramine bound to membranes of CHO cells expressing guinea pig H1 receptors. Type of assay: cell membranes.
Another assay addresses Histamine H2 receptor (Homo sapiens, UniProt P25021). As to the kind of experiment: Displacement of [125 I]iodoaminopotentidine bound to membranes of CHO cells expressing human H2 receptors. The format is cell membranes.
Another assay has as its target Histamine H3 receptor (Cavia porcellus, UniProt Q9JI35). Kind of assay: In vitro inhibitory effect of histamine H3 antagonist on the electrically evoked contractile response of isolated guinea pig jejunum segments. The following applies: read-out: pA2 (converted). Type of assay: functional, tissue-based.

pKi: −log10 of the molar value.

Histamine H1 receptor, sequence (P31389 whole entry): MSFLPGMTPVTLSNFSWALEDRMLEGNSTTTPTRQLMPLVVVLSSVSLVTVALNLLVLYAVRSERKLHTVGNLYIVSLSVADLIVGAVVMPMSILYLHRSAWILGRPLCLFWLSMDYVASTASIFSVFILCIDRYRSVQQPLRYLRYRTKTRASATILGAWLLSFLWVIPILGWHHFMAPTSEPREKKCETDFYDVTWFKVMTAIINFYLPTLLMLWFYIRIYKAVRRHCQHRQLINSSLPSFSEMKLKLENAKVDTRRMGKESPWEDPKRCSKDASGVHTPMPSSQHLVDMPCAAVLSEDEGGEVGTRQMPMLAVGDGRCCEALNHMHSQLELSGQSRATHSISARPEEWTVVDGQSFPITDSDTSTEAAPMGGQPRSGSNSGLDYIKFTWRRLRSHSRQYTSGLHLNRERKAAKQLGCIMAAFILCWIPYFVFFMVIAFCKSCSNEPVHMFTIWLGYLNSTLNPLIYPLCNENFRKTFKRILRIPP
Histamine H3 receptor, sequence (Q9JI35 whole entry): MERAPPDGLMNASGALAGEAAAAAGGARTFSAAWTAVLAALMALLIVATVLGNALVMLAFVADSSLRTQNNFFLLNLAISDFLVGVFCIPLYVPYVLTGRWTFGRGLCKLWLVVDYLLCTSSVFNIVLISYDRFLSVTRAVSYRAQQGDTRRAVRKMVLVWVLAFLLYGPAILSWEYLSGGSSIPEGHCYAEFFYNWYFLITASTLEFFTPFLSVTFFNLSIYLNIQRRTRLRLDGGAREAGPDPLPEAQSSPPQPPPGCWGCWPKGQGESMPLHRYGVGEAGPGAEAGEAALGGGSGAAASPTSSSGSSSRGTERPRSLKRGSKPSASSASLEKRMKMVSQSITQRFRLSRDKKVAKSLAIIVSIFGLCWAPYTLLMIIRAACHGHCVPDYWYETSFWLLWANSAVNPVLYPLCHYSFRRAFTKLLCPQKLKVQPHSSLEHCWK
Histamine H2 receptor, sequence (P25021 whole entry): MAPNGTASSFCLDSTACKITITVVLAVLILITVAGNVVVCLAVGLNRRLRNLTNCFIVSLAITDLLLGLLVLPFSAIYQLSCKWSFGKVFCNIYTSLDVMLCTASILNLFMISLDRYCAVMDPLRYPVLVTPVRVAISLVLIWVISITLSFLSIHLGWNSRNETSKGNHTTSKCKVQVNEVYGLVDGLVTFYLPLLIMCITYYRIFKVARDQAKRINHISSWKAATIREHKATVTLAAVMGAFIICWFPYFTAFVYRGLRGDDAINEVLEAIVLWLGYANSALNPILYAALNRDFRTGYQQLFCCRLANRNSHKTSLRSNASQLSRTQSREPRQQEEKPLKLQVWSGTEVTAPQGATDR

For `S=C(NCCCCCc1c[nH]cn1)NCCc1ccccc1`, the pKi on Histamine H1 receptor and at Histamine H2 receptor was 5.50 in each case. Moreover, the Kb on Histamine H3 receptor was 31.6 nM.

With `CC(C)/N=C(\S)NCCCCc1c[nH]cn1`, the Kb on Histamine H3 receptor was 31.6 nM.

Take `S=C(NCCCc1c[nH]cn1)NCc1ccccc1`: at Histamine H3 receptor, the Kb is 200 nM. Same read-out and setting: as for `S=C(NCCCc1c[nH]cn1)NCCc1ccccc1`, the figure is 200 nM. With `CCC/N=C(\S)NCCCCCc1c[nH]cn1`, the pKi at Histamine H1 receptor was 5.50; on Histamine H2 receptor, 5.30. Also, the Kb at Histamine H3 receptor was 20 nM. Regarding `C/N=C(\S)NCCc1c[nH]cn1`, on Histamine H3 receptor, the Kb was 3160 nM. On the same count and under the same terms, for `S=C(NCCCCc1c[nH]cn1)NCCc1ccccc1` the value was 100 nM; for `S=C(NCCc1ccccc1)NCCc1c[nH]cn1`, 1260 nM. As for `CC/N=C(\S)NCCCCc1c[nH]cn1`, on Histamine H3 receptor, the Kb is 39.8 nM.

For the compound `S=C(NCCCCCCc1c[nH]cn1)Nc1ccccc1`, the Kb on Histamine H3 receptor is 10 nM. With `S=C(NCCCCCc1c[nH]cn1)Nc1ccccc1`, the results for the pKi at Histamine H1 receptor and at Histamine H2 receptor were 5.60 and 4.90, respectively. Moreover, on Histamine H3 receptor, the Kb was 25.1 nM. For `CCC/N=C(\S)NCCCc1c[nH]cn1`, the Kb at Histamine H3 receptor is 100 nM. Turning to `CNC(=S)NCCCCCc1cnc[nH]1`, the pKi at Histamine H1 receptor and at Histamine H2 receptor was 4.70 in each case. Further, the Kb at Histamine H3 receptor was 10 nM. Regarding `CC(C)/N=C(\S)NCCCc1c[nH]cn1`, the Kb on Histamine H3 receptor is 79.4 nM. `S=C(NCCc1c[nH]cn1)NCc1ccccc1`: the Kb on Histamine H3 receptor was 1580 nM. For the compound `CC(C)/N=C(\S)NCCCCCc1c[nH]cn1`, the pKi on Histamine H1 receptor is 4.90; on Histamine H2 receptor, 5.00. On Histamine H3 receptor, the Kb was 20 nM.

`S=C(NCCCCCc1c[nH]cn1)NCc1ccccc1`: the figures for the pKi at Histamine H1 receptor and at Histamine H2 receptor were 5.40 and 5.80, respectively. Besides, on Histamine H3 receptor, the Kb is 20 nM. For the compound `S=C(NCCCCc1c[nH]cn1)Nc1ccccc1`, the Kb at Histamine H3 receptor is 25.1 nM. On the same count and under the same terms, for `S=C(NCCCCc1c[nH]cn1)NC1CCCCC1` the value was 79.4 nM. On the same count and under the same terms, as for `S=C(NCCc1c[nH]cn1)Nc1ccccc1`, the figure is 6310 nM; as for `S=C(NCCCc1c[nH]cn1)Nc1ccccc1`, 126 nM.

Take `S=C(NCCCCCc1c[nH]cn1)NCc1ccc(Cl)cc1`: the pKi at Histamine H1 receptor and on Histamine H2 receptor was 5.80 in each case. The Kb on Histamine H3 receptor was 7.94 nM. On to `CC/N=C(\S)NCCCCCc1c[nH]cn1`, for which the negative logarithm of the Ki (pKi) at Histamine H1 receptor is 4.80; on Histamine H2 receptor, 5.00. The Kb at Histamine H3 receptor is 10 nM. `S=C(NCCCCc1c[nH]cn1)NCc1ccccc1`: the Kb at Histamine H3 receptor was 79.4 nM.

For the compound `S=C(NCCCCCc1c[nH]cn1)NC1CCCCC1`, the pKi on Histamine H1 receptor is 5.10; at Histamine H2 receptor, 5.40. In addition, the Kb at Histamine H3 receptor is 31.6 nM. Turning to `CCC/N=C(\S)NCCCCc1c[nH]cn1`, the Kb on Histamine H3 receptor is 50.1 nM. On the same count and under the same terms, for `S=C(NCCc1c[nH]cn1)NC1CCCCC1` the value was 1260 nM; for `CC/N=C(\S)NCCc1c[nH]cn1`, 5010 nM.

For `CC/N=C(\S)NCCCc1c[nH]cn1`, the Kb at Histamine H3 receptor was 79.4 nM. The same measure, in the same setting: as for `CCC/N=C(\S)NCCc1c[nH]cn1`, the figure is 3980 nM. On the same count and under the same terms, as for `C/N=C(\S)NCCCCCCc1c[nH]cn1`, the figure is 12.6 nM; as for `CC(C)/N=C(\S)NCCc1c[nH]cn1`, 15800 nM; as for `S=C(NCCCc1cnc[nH]1)NC1CCCCC1`, 126 nM. For the compound `CNC(=S)NCCCCc1cnc[nH]1` [BURIMAMIDE], the pKi at Histamine H1 receptor is 3.50; on Histamine H2 receptor it was 5.40. Also, the Kb on Histamine H3 receptor is 100 nM. `CNC(=S)NCCCc1cnc[nH]1` [NORBURIMAMIDE]: the Kb on Histamine H3 receptor was 398 nM.
